We go through 56 compounds from patent US20090203694A1, “INHIBITORS OF UNDECAPRENYL PYROPHOSPHATE SYNTHASE” (priority 2006, published 2009).

What is called IC50 is the midpoint of a concentration-inhibition curve.

In the test the target is T1, Streptococcus pneumonia UPPS (Streptococcus pneumoniae serotype 4, UniProt Q97SR4).
T1 construct: His-tag (N)
T1 sequence (Q97SR4 1-252): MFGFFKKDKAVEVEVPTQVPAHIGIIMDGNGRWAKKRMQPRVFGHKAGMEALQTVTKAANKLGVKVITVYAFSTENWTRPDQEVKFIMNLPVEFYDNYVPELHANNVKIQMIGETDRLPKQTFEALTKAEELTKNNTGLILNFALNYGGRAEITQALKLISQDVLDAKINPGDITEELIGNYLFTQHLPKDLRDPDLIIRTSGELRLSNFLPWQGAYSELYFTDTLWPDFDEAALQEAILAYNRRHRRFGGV
As to the kind of experiment: Determination of binding to UPPS (inorganic phosphate release, Biomol Green). The format is biochemical. As to conditions: FPP 3 μM, IPP 16 μM; 20 minutes preincubation with compound. The method, then:
The ability of several of the compounds described herein to bind to UPPS was also tested as follows.
Streptococcus pneumonia UPPS was cloned into pET-15b, expressed and purified as an N-terminal His-tag fusion using affinity chromatography. The working stock of UPPS was prepared by mixing the purified enzyme with liposome made from E. coli total lipids extract (Avanti Polar Lipis, Inc., Alabaster, Ala.). The substrates FPP and IPP and inorganic pyrophosphatase were purchased from Sigma. Biomol Green reagent was from Biomol International (Plymouth Meeting, Pa.). All other chemicals were from Sigma at the highest grade.
For testing a compound, UPPS was first incubated with the compound at desired concentrations for 20 minutes in the UPPS reaction buffer that contained 100 mM Tris-HCl, pH 7.3, 50 mM KCl, 1 mM MgCl2, 0.01% Triton X-100, and 20 μg/mL BSA. The reaction was then initiated by the addition of a mixture of FPP, IPP, and E. coli […] made in the same UPPS reaction buffer. The final concentrations for FPP and IPP were 3 μM and 16 μM, respectively. The inorganic phosphate generated in the reactions was then quantified with Biomol Green reagent, which was then used to determine the rate of the reaction and the inhibitory activity of the compound.
For example, the results of the binding assay for several compounds are shown the table below: […]
As for `COc1ccc(-c2nc(NC(=O)C3=C(O)CC(Cc4ccccc4)NC3=O)nn2-c2ccc(CO)cc2)cc1` (centres unmarked) [compound 177], the half-maximal inhibitory concentration (IC50) lay in the range of 0.01 to 10 µM. Consider `O=C(Nc1ccc(-c2ccccc2)cc1)C1=C(O)C(c2ccccc2)NC1=O` (centres unmarked) [compound 14], for which the IC50 is 0.01 to 10 µM. The same measure for `CC(C)CC1CC(O)=C(C(=O)Nc2ccc(-n3cccn3)cc2)C(=O)N1` (centres unmarked) [compound 192]: 0.01 to 10 µM; for `O=C(Nc1ccc(-c2ccccc2)cc1)C1=C(O)C(c2ccccc2)NC1=O` (centres unmarked) [compound 16]: 0.01 to 10 µM.

With `O=C(Nc1ccc(Oc2ncc(C(F)(F)F)cc2Cl)cc1)C1=C(O)C(Cc2ccccc2)NC1=O` (centres unmarked) [compound 9], the half-maximal inhibitory concentration (IC50) was 0.01 to 10 µM. With `CCC1C(O)=C(C(=O)Nc2ccc(C3CCCCC3)cc2)C(=O)N1C` (centres unmarked) [compound 15] the figure was 10 to 50 µM; with `CCCCCCOc1ccc(NC(=O)C2=C(O)C(CCc3ccccc3)NC2=O)cc1` (centres unmarked) [compound 77], 0.01 to 10 µM; with `O=C(NC1CCCCC1)C1=C(O)C(Cc2ccccc2)NC1=O` (centres unmarked) [compound 23], > 50 µM.

On to `CC(C)CC1CC(O)=C(C(=O)Nc2ccc(S(=O)(=O)c3ccccc3)cc2)C(=O)N1` (centres unmarked) [compound 202], for which the 50% inhibitory concentration (IC50) lay within 10 to 50 µM. Turning to `CC(C)CC1NC(=O)C(C(=O)Nc2ccc(Oc3ccccc3)cc2)=C1O` (centres unmarked) [compound 123], the IC50 is 0.01 to 10 µM.

For the compound `O=C(Nc1ccc(N2CCCCC2)cc1)C1=C(O)C(c2ccccc2)NC1=O` (centres unmarked) [compound 7], the 50% inhibitory concentration (IC50) is 0.01 to 10 µM. With `O=C(Nc1ccc(N2CCCCC2)cc1)C1=C(O)CC(Cc2ccccc2)NC1=O` (centres unmarked) [compound 174] the figure was 0.01 to 10 µM. With `O=C(Nc1ccc(-n2cccn2)cc1)C1=C(O)CC(C2CCCCC2)NC1=O` (centres unmarked) [compound 198] the figure was 0.01 to 10 µM; with `CC(C)CC1CC(O)=C(C(=O)Nc2ccc(OC(F)(F)F)cc2)C(=O)N1` (centres unmarked) [compound 183], 0.01 to 10 µM; with `O=C(Nc1ccc(C2CCCCC2)cc1)C1=C(O)C(c2ccccc2)NC1=O` (centres unmarked) [compound 11], 0.01 to 10 µM.

In the case of `O=C(Nc1ccc(C2CCCCC2)cc1)C1=C(O)CC(C2CCCCC2)NC1=O` (centres unmarked) [compound 185], the 50% inhibitory concentration (IC50) was 0.01 to 10 µM. Consider `CC(C)CC1NC(=O)C(C(=O)Nc2cccc(Oc3ccccc3)c2)=C1O` (centres unmarked) [compound 70], for which the IC50 lay in the range of 0.01 to 10 µM.

As to `N#Cc1ccccc1Oc1cccc(NC(=O)C2=C(O)C(c3ccccc3)NC2=O)c1` (centres unmarked) [compound 8], the 50% inhibitory concentration (IC50) lay in the range of 0.01 to 10 µM. As for `CC(C)CC1NC(=O)C(C(=O)Nc2ccc(-c3ccccc3)cc2)=C1O` (centres unmarked) [compound 81], the IC50 fell in the range of 0.01 to 10 µM. With `N#Cc1ccc(-c2ccc(NC(=O)C3=C(O)C(Cc4ccccc4)NC3=O)cc2)cc1` (centres unmarked) [compound 66] the figure was 0.01 to 10 µM.

Consider `O=C(Nc1ccc(-n2cccn2)cc1)C1=C(O)CC(c2ccccc2)NC1=O` (centres unmarked) [compound 181], for which the half-inhibitory concentration (IC50) fell in the range of 0.01 to 10 µM. With `CC1CC(O)=C(C(=O)Nc2ccc(Oc3ccccc3)cc2)C(=O)N1` (centres unmarked) [compound 223] the figure was > 50 µM. With `O=C(Nc1ccc(Nc2ccccc2)cc1)C1=C(O)C(CC2CCCCC2)NC1=O` (centres unmarked) [compound 103] the figure was 0.01 to 10 µM; with `O=C(Nc1ccc(Cc2ccccc2)cc1)C1=C(O)C(Cc2ccccc2)NC1=O` (centres unmarked) [compound 10], 0.01 to 10 µM; with `O=C(Nc1ccc(S(=O)(=O)c2ccccc2)cc1)C1=C(O)CC(C2CCCCC2)NC1=O` (centres unmarked) [compound 206], 0.01 to 10 µM. With `CCCCCCOc1ccc(NC(=O)C2=C(O)C(CC(C)C)NC2=O)cc1` (centres unmarked) [compound 52] the figure was 0.01 to 10 µM; with `CC(C)CC1CC(O)=C(C(=O)Nc2ccc(C3CCCCC3)cc2)C(=O)N1` (centres unmarked) [compound 182], 0.01 to 10 µM.

On to `O=C(Nc1ccc(-c2ccccc2)cc1)C1=C(O)C(Cc2c[nH]cn2)NC1=O` (centres unmarked) [compound 113], for which the half-inhibitory concentration (IC50) lay in the range of 0.01 to 10 µM. For `O=C(Nc1ccc(C2CCCCC2)cc1)C1=C(O)C(c2ccccc2)NC1=O` (centres unmarked) [compound 116], the IC50 lay in the range of 0.01 to 10 µM.

Consider `O=C(Nc1ccc(Oc2ccccc2)cc1)C1=C(O)C(CCc2ccccc2)NC1=O` (centres unmarked) [compound 86], for which the concentration for half-maximal inhibition (IC50) lay in the range of 0.01 to 10 µM.

For `O=C(Nc1ccc(OC2CCCCC2)cc1)C1=C(O)CC(c2ccccc2)NC1=O` (centres unmarked) [compound 166], the IC50 was in the range of 0.01 to 10 µM. The same measure for `O=C(NCCSCc1c(Cl)cccc1Cl)C1=C(O)C(Cc2ccccc2)NC1=O` (centres unmarked) [compound 54]: 10 to 50 µM. The same measure for `O=C(Nc1ccc(-c2ccccc2)cc1)C1=C(O)CC(Cc2ccccc2)NC1=O` (centres unmarked) [compound 187]: 0.01 to 10 µM; for `O=C(Nc1ccc(C2CCCCC2)cc1)C1=C(O)CN(Cc2ccccc2)C1=O` [compound 19]: 0.01 to 10 µM.

Consider `O=C(Nc1ccc(Oc2ccccc2)cc1)C1=C(O)CC(C2CCCCC2)NC1=O` (centres unmarked) [compound 189], for which the IC50 is 0.01 to 10 µM. With `O=C(Nc1cccc(Oc2ccccc2)c1)C1=C(O)C(CC2CCCCC2)NC1=O` (centres unmarked) [compound 49], the half-inhibitory concentration (IC50) is 0.01 to 10 µM.

Take `CC(C)CC1NC(=O)C(C(=O)NCc2ccc(-c3cccs3)cc2)=C1O` (centres unmarked) [compound 36]: the half-inhibitory concentration (IC50) was 0.01 to 10 µM. As to `O=C(Nc1ccc(C2CCCCC2)cc1)C1=C(O)C(Cc2ccccc2)NC1=O` (centres unmarked) [compound 5], the IC50 is 0.01 to 10 µM. The same measure for `O=C(Nc1ccc(-c2ccccc2)cc1)C1=C(O)CC(c2ccccc2)NC1=O` (centres unmarked) [compound 169]: 0.01 to 10 µM; for `O=C(Nc1ccc(N2CCCCC2)cc1)C1=C(O)C(CCc2ccccc2)NC1=O` (centres unmarked) [compound 97]: 0.01 to 10 µM; for `O=C(Nc1ccc(C(F)(F)F)cc1)C1=C(O)CC(c2ccccc2)NC1=O` (centres unmarked) [compound 167]: 0.01 to 10 µM. In the case of `O=C(Nc1ccc(C2CCCCC2)cc1)C1=C(O)C(c2ccccc2)NC1=O` (centres unmarked) [compound 56], the concentration for half-maximal inhibition (IC50) lay in the range of 0.01 to 10 µM.

As to `O=C(Nc1ccc(N2CCCCC2)cc1)C1=C(O)CC(c2ccccc2)NC1=O` (centres unmarked) [compound 168], the IC50 lay in the range of 0.01 to 10 µM. With `COc1cccc(NC(=O)C2=C(O)C(c3ccccc3)NC2=O)c1` (centres unmarked) [compound 12] the figure was 0.01 to 10 µM.

For the compound `O=C(Nc1ccc(C2CCCCC2)cc1)C1=C(O)CC(c2ccccc2)NC1=O` (centres unmarked) [compound 164], the half-inhibitory concentration (IC50) is 0.01 to 10 µM.

Turning to `COc1ccc(NC(=O)C2=C(O)CC(c3ccccc3)NC2=O)cc1` (centres unmarked) [compound 170], the IC50 was 0.01 to 10 µM. As for `O=C(Nc1cccc(Oc2ccccc2)c1)C1=C(O)C(CCc2ccccc2)NC1=O` (centres unmarked) [compound 80], the IC50 was in the range of 0.01 to 10 µM. For `O=C(Nc1ccc(N2CCCCC2)cc1)C1=C(O)C(CCc2ccccc2)NC1=O` (centres unmarked) [compound 143], the IC50 was 0.01 to 10 µM. With `CC(C)CC1NC(=O)C(C(=O)Nc2ccc(Nc3ccccc3)cc2)=C1O` (centres unmarked) [compound 104], the 50% inhibitory concentration (IC50) is 0.01 to 10 µM. With `CCN1CCN(c2ccc(NC(=O)C3=C(O)C(CC(C)C)NC3=O)cc2)CC1` (centres unmarked) [compound 148] the figure was 0.01 to 10 µM. Regarding `O=C(Nc1ccc(CO)cc1)C1=C(O)C(Cc2ccccc2)NC1=O` (centres unmarked) [compound 22], the IC50 is > 50 µM.

For `CC(C)CC1NC(=O)C(C(=O)Nc2ccc(Oc3nc4ccccc4s3)cc2)=C1O` (centres unmarked) [compound 126], the half-inhibitory concentration (IC50) fell in the range of 0.01 to 10 µM. With `Cc1ccc2nc(-c3ccc(NC(=O)C4=C(O)C(Cc5ccccc5)NC4=O)cc3)sc2c1` (centres unmarked) [compound 4] the figure was 10 to 50 µM; with `O=C(Nc1ccc(N2CCOCC2)cc1)C1=C(O)C(c2ccccc2)NC1=O` (centres unmarked) [compound 13], 10 to 50 µM; with `O=C1NCC(CC2CCCCC2)C(O)=C1C(=O)Nc1ccc(-n2ccnc2)cc1` (centres unmarked) [compound 221], 0.01 to 10 µM. The same measure for `Cc1ccc2nc(-c3ccc(NC(=O)C4=C(O)C(c5ccccc5)NC4=O)cc3)sc2c1` (centres unmarked) [compound 6]: 0.01 to 10 µM.
